Measurements taken from patent US11365201B2, “Chlorotonil derivatives” (HELMHOLTZ-ZENTRUM FÜR INFEKTIONSFORSCHUNG GMBH, priority 2017, dated 2022).
In brackets after ≈: the same amount, converted by molar mass.

Tests used:
Plasmodium falciparum = conditions: cited from earlier work
[1] = system: chloroquine-resistant laboratory strains of Plasmodium falciparum; conditions: read-out: mean IC50, chloroquine-resistant laboratory strains of Plasmodium falciparum; in vitro, first screening; cited from earlier work
[2] = Determination of water solubility, Method 2 (HPLC-MS standard curve, saturated solution in water); assay type: physicochemical; conditions: thermodynamic from solid; saturated solution in water, HPLC-MS standard curve
Method: (§1) Determination of Water Solubility
A standard curve with 10 calibration points of the compound of interest is plotted using HPLC-MS and serial dilution. The dilutions and stock solutions were prepared in THF as a solvent. Following the measurements, a saturated solution in water of the compound in study was also measured. Upon plotting the standard curve using the peak areas of the MS peaks, the water samples were plotted along the curve and the solubility was then calculated.

[3] = system: mature stage (stage IV-V) gametocytes; conditions: read-out: mean IC50, gametocytocidal activity, ATP bioluminescence; cited from earlier work
[4] = mice; cited from earlier work
[5] = system: L-929 (murine fibroblasts); assay: Cytotoxicity assay (MTT, 5 d); assay type: cell-based; conditions: Mus musculus, L929, 120 h
Method: Cytotoxicity Assay The murine fibroblast cell line L-929 was obtained from the German Collection of Microorganisms and Cell Cultures (DSMZ) and maintained under conditions recommended by the depositor. Cells were seeded at 6×10^3 cells per well of sterile 96-well plates in 180 μL complete medium and treated with the compounds in serial dilution after 2 h of equilibration. After 5 d, viability was assessed by the MTT method. After 1.5 h incubation with 0.5 mg/mL MTT reagent, cells were washed with PBS and 100 μL of 2-propanol/10 N HCl (250:1) was added. The absorbance at 570 nm was determined on a microplate reader and cell viability was expressed as percentage relative to the respective solvent control. Half-inhibitory concentrations (IC50) were determined by sigmoidal curve fitting.

E. coli TolC (+PMBN) = assay: Antimicrobial assay, MIC by microbroth dilution with PMBN; assay type: cell-based; conditions: 16 h, 3 μg/mL polymyxin B nonapeptide (PMBN) added
Method: Bacterial strains used in susceptibility assays (minimum inhibitory concentrations, MIC) were either part of our internal strain collection or were purchased form the German Collection of Microorganisms and Cell Cultures (DSMZ). All compounds were prepared as DMSO stocks and MIC values were determined in standard microbroth dilution assays. Overnight cultures of bacteria were diluted in cation-adjusted Muller-Hinton broth (BBL™, BD) and were adjusted to approximately 10^5 cfu/mL. For the E. coli culture, 3 μg/mL of polymyxin B nonapeptide (PMBN) was added to increase permeability of the outer membrane as chlorotonils were previously shown to not penetrate into Gram-negative cells. Bacteria were grown in the presence of the derivatives in serial dilution for 16 h at their optimal growth temperature. MIC values were determined according to CLSI guidelines (antibiotic concentration at which no visible bacterial growth is observed).

[6] = system: clinical isolates from Gabon; conditions: read-out: median IC50, clinical isolates from Gabon; in vitro; cited from earlier work
[7] = Determination of water solubility, Method 1 (suspension in tap water, weighing); assay type: physicochemical; conditions: thermodynamic from solid, room temperature, 18 h stirring, triplicates
Method: as §1
10 mg of compound was suspended in 1 L of tap water and the solution was stirred at room temperature for 18 h. Upon completion, solution was sonicated for another hour, centrifuged and the supernatant was separated from the precipitate. Both aliquots were lyophilized, and weighed. This procedure was performed in triplicates.

[8] = system: P. falciparum Dd2 (resistant strain); assay: Antiplasmodial in vitro drug sensitivity assay (HRP2-ELISA); assay type: cell-based; conditions: Plasmodium falciparum, DD2, read-out: IC50 against P. falciparum Dd2
Method: (§2) Two laboratory strains of P. falciparum, the chloroquine sensitive 3D7 and the multi-resistant Dd2 were kept in continuous culture as previously described (Trager and Jensen 1976). In brief, parasites were kept in complete culture medium (RPMI 1640, 25 mM HEPES, 2 mM L-glutamine, 50 μg/ml gentamicin and 0.5% w/v AlbuMAX) at 37° C., 5% CO2 and 5% oxygen at 5% hematocrit with daily change of medium. Synchronization was performed with sorbitol twice a week (Lambros and Vanderberg 1979).
(§3) In Vitro Drug Sensitivity Assay
(§4) All compounds were dissolved in DMSO at stock dilutions between 25 and 100 mM; the reference drug chloroquine diphosphate (MW: 515.86) was diluted in distilled water and DMSO, respectively. […] Antiplasmodial activity of the different compounds was tested in a drug sensitivity assay against the two laboratory strains using the histidine-rich protein 2 (HRP2) assay as described previously (Noedl 2005). In brief: 96 well plates were pre-coated with the different compounds in a threefold dilution before ring stage parasites were added in complete culture medium at a hematocrit of 1.5% and a parasitemia of 0.05% in a total volume of 225 μl per well. After three days of incubation plates were frozen until analyzed by HRP2-ELISA. All compounds were evaluated in duplicate in at least two independent experiments.

[9] = system: P. falciparum 3D7 (sensitive strain); assay: as above; assay type: cell-based; conditions: Plasmodium falciparum, 3D7, read-out: IC50 against P. falciparum 3D7
Method: as §2, §3, §4

[10] = system: chloroquine-sensitive laboratory strains of Plasmodium falciparum; conditions: read-out: mean IC50, chloroquine-sensitive laboratory strains of Plasmodium falciparum; in vitro, first screening; cited from earlier work

Compound: CC1=C[C@@H](C)C2C3C(=O)C(Cl)(Cl)C(=O)[C@H](C)C(=O)O[C@@H](C)/C=C/C=C\[C@@H](C)[C@@H]3C=C[C@@H]2C1 (stereo partly drawn) [Chlorotonil A (ChA), Chlorotonil A]
- Development of resistant parasites in vitro by drug pressure (Plasmodium falciparum): not possible to develop resistant parasites in vitro by drug pressure
- IC50 [1]: 18 nM
- solubility [2]: 1.8 µg/mL (≈ 3.75 µM)
- IC50 [3]: 29.6 nM
- oral availability [4]: orally available
- IC50 [5]: 1100 nM
- MIC E. coli TolC (+PMBN) (E. coli TolC (+PMBN)): 0.4 µg/mL
- IC50 [6]: 15.2 nM
- solubility at 18 h [7]: 3 µg/mL (≈ 6.26 µM)
- IC50 [8]: 20.7 nM
- IC50 [9]: 18.7 nM
- IC50 [10]: 9 nM
